Experimental data reported in PubChem BioAssay AID1259407 (Chemical Carcinogenesis Research Information System (CCRIS), 2018).
Calls of active or inactive are those of the source. How the calls were made is not given here.

System: CCRIS mutagenicity, Ames/micronucleus/aberration tests
Experiment: CCRIS mutagenicity studies
[1] = Test System: AMES SALMONELLA TYPHIMURIUM, Strain/Indicator: TA98, Metabolic Activation: NONE, Method: PREINCUBATION
[2] = Test System: AMES SALMONELLA TYPHIMURIUM, Strain/Indicator: TA100, Metabolic Activation: NONE, Method: PREINCUBATION

With `CC(c1ccccc1)N(C)C` (stereo unspecified) the mutagenic call [1] was “inactive; negative”, the mutagenic call (Test System: AMES SALMONELLA TYPHIMURIUM, Strain/Indicator: TA98, Metabolic Activation: RAT, LIVER, S-9, PCB, Method: PREINCUBATION) was “inactive; negative” and the mutagenic call [2] was “inactive; negative”. The mutagenic call (Test System: AMES SALMONELLA TYPHIMURIUM, Strain/Indicator: TA100, Metabolic Activation: RAT, LIVER, S-9, PCB, Method: PREINCUBATION) was “inactive; negative”.
`COc1cccc2c1C(=O)c1c(O)c3c(c(O)c1C2=O)C[C@@](O)(C(C)=O)C[C@@H]3O[C@H]1C[C@H](NCc2ccccc2)[C@H](O)[C@H](C)O1` was tested, and the mutagenic call (Test System: UDS RAT HEPATOCYTES, Strain/Indicator: THY INCORP, Metabolic Activation: NONE, Method: AUTOMATIC COLONY COUNTER) was “active; positive”.
For `CC(=O)OC[C@]12C[C@H](OC(=O)CC(C)C)C(C)=C[C@H]1O[C@@H]1[C@H](O)[C@@H](OC(C)=O)[C@@]2(C)[C@]12CO2`, the mutagenic call (Test System: AMES SALMONELLA TYPHIMURIUM, Strain/Indicator: TA98, Metabolic Activation: RAT LIVER S-9, DELOR 103, Method: STANDARD PLATE) was “inactive; negative”, the mutagenic call (Test System: AMES SALMONELLA TYPHIMURIUM, Strain/Indicator: TA98, Metabolic Activation: RAT, LIVER, MICROSOMES, PHENOBARBITAL, Method: STANDARD PLATE) was “inactive; negative” and the mutagenic call [2] was “inactive; negative”. The mutagenic call (Test System: AMES SALMONELLA TYPHIMURIUM, Strain/Indicator: TA100, Metabolic Activation: RAT LIVER S-9, DELOR 103, Method: STANDARD PLATE) was “inactive; negative”, the mutagenic call (Test System: AMES SALMONELLA TYPHIMURIUM, Strain/Indicator: TA100, Metabolic Activation: RAT, LIVER, MICROSOMES, PHENOBARBITAL, Method: STANDARD PLATE) was “inactive; negative” and the mutagenic call (Test System: AMES SALMONELLA TYPHIMURIUM, Strain/Indicator: TA100, Metabolic Activation: RAT, LIVER, S-9, PHENOBARBITAL, Method: PREINCUBATION) was “inactive; negative”. For the same compound, the mutagenic call (Test System: CHINESE HAMSTER, Strain/Indicator: V-79/6-THIOGUANINE, Metabolic Activation: NONE, Method: STANDARD PLATE) was “active; positive” and the mutagenic call (Test System: CHINESE HAMSTER, Strain/Indicator: V-79/6-THIOGUANINE, Metabolic Activation: S-9, Method: STANDARD PLATE) was “active; positive”.
With `O=[N+]([O-])c1ccc(-[n+]2nc(-c3ccccc3)nn2-c2ccc(I)cc2)cc1` the mutagenic call (Test System: AMES SALMONELLA TYPHIMURIUM, Strain/Indicator: TA97, Metabolic Activation: NONE, Method: SPOT TEST) was “inactive; negative”, the mutagenic call [1] was “inactive; negative” and the mutagenic call (Test System: AMES SALMONELLA TYPHIMURIUM, Strain/Indicator: TA98, Metabolic Activation: NONE, Method: SPOT TEST) was “inactive; negative”. The mutagenic call [2] was “inactive; negative”, the mutagenic call (Test System: AMES SALMONELLA TYPHIMURIUM, Strain/Indicator: TA100, Metabolic Activation: NONE, Method: SPOT TEST) was “inactive; negative” and the mutagenic call (Test System: AMES SALMONELLA TYPHIMURIUM, Strain/Indicator: TA102, Metabolic Activation: NONE, Method: SPOT TEST) was “inactive; negative”.
With `O=C(CBr)NCc1ccccc1` the mutagenic call (Test System: AMES SALMONELLA TYPHIMURIUM, Strain/Indicator: TA100, Metabolic Activation: MOUSE, LIVER, S-9, AROCLOR 1254, Method: STANDARD PLATE) was “active; positive” and the mutagenic call (Test System: AMES SALMONELLA TYPHIMURIUM, Strain/Indicator: TA100, Metabolic Activation: NONE, Method: STANDARD PLATE) was “inactive; negative”.
